According to patent US20130095503A1, “SERUM SPLA2-IIA AS DIAGNOSIS MARKER FOR PROSTATE AND LUNG CANCER” (UNIVERSITY OF CINCINNATI, priority 2010, published 2013):

What was measured:
Assay type in all cases: cell-based, human
[1] = tested on: sPLA2-IIA gene promoter; test: sPLA2-IIA(-800)-Luc reporter (luciferase) assay in LNCaP-AI cells; conditions: about 24 hours, FIG. 1; for effect on EGF-stimulated promoter activity of sPLA2-IIA gene: EGF ~100 ng/mL with inhibitor ~20 μM (CI-1033 ~8 μM)
Method: (§1) The role of sPLA2-IIA gene regulation in prostate cancer cells via the HER/HER2-PI3K-Akt-NF-κB pathway was investigated. A reporter assay was performed by transiently transfecting sPLA2-IIA(-800)-Luc (˜0.25 μg/well) reporter in LNCaP-AI cells (˜10^5 cells/well in 12-well plate). The cells were then treated with epidermal growth factor (hereinafter “EGF”) (˜100 ng/mL) without or with EGFR inhibitors Erlotinib (˜20 μM) and Gefitinib (˜20 μM), EGFR/HER2 dual inhibitors Lapatinib (˜20 μM) and CI-1033 (˜8 μM), phosphoinositide 3-kinase (hereinafter “PI3K”) inhibitor LY294002 (˜20 μM), and NF-κB inhibitor Bortezomib (˜20 μM) for about 24 hours. A luciferase assay was performed according to a standard protocol with Renilla luciferase as an internal control. Another reporter assay was performed wherein LNCaP-AI cells were starved in 1% stripped medium for about 24 hours. The cells were the treated with Erlotinib (˜20 μM), Gefitinib (˜20 μM), Lapatinib (˜20 μM), CI-1033 (˜8 μM), LY294002 (˜20 μM), Bortezomib (˜20 μM), and/or Heregulin-α (˜50 ng/mL) without or with EGF (˜100 ng/mL) for about 24 hours.

[2] = tested on: sPLA2-IIA protein expression in LNCaP-AI cells; test: Western blot of sPLA2-IIA protein expression in LNCaP-AI cells; conditions: about 24 hours; for effect on sPLA2-IIA protein expression: basal states and EGF-induced expression, inhibitor ~20 μM (CI-1033 ~8 μM), FIGS. 2-4
Method: as §1
Cell extracts were then prepared and subjected to western blot analysis for sPLA2-IIA, P-Akt, Akt, and β-actin. Briefly, aliquots of samples with the same amount of protein, determined using the Bradford assay (BioRad, Hercules, Calif.), were mixed with loading buffer (final concentrations of 62.5 mM Tris-HCl, pH 6.8, 2.3% sodium dodecyl sulfate, 100 mM dithiothreitol, and 0.005% bromophenol blue), boiled, fractionated in a sodium dodecyl sulfate-polyacrylamide gel electrophoresis, and transferred onto a 0.45-μm nitrocellulose membrane (BioRad). The filters were blocked with 2% fat-free milk in PBS, and probed with primary antibody in phosphate buffered saline containing 0.1% Tween 20 (i.e., PBST) and 1% fat-free milk. The membranes were then washed four times in PBST and incubated with horseradish peroxidase-conjugated secondary antibody (BioRad) in PBST containing 1% fat-free milk. After washing four times in PBST, the membranes were visualized using the ECL Western Blotting Detection System (Amersham Co, Arlington Height, Ill.).

[3] = tested on: sPLA2-IIA secretion by LNCaP-AI cells; test: ELISA of sPLA2-IIA secreted into culture medium of LNCaP-AI cells; conditions: inhibitor ~20 μM (CI-1033 ~8 μM), about 24 hours, FIG. 7
Method: Finally, LNCaP-AI cells were starved in 1% stripped medium for about 24 hours. The cells were then treated with Erlotinib (˜20 μM), Gefitinib (˜20 μM), Lapatinib (˜20 μM), CI-1033 (˜8 μM), LY294002 (˜20 μM), and Bortezomib (˜20 μM) for about 24 hours. Cell culture medium was collected from each sample and subjected to ELISA for sPLA2-IIA. The condition medium samples were diluted 10 times for ELISA. The average of duplicate samples was converted to nanogram per milliliter against standard curve. The data represent one of five repeated experiments.

[4] = tested on: sPLA2-IIA expression in LAPC-4 and DU145 cells; test: Western blot of sPLA2-IIA expression in LAPC-4 and DU145 cells; conditions: Lapatinib ~20 μM, via blocking PI3K-Akt signaling, FIG. 5
Method: A reporter assay was performed by transiently transfecting sPLA2-IIA(-800)-Luc (˜0.25 μg/well) reporter in LNCaP-AI cells (˜10^5 cells/well in 12-well plate). The cells were then treated with epidermal growth factor (hereinafter “EGF”) (˜100 ng/mL) without or with EGFR inhibitors Erlotinib (˜20 μM) and Gefitinib (˜20 μM), EGFR/HER2 dual inhibitors Lapatinib (˜20 μM) and CI-1033 (˜8 μM), phosphoinositide 3-kinase (hereinafter “PI3K”) inhibitor LY294002 (˜20 μM), and NF-κB inhibitor Bortezomib (˜20 μM) for about 24 hours. A luciferase assay was performed according to a standard protocol with Renilla luciferase as an internal control. Another reporter assay was performed wherein LNCaP-AI cells were starved in 1% stripped medium for about 24 hours. […] Briefly, aliquots of samples with the same amount of protein, determined using the Bradford assay (BioRad, Hercules, Calif.), were mixed with loading buffer (final concentrations of 62.5 mM Tris-HCl, pH 6.8, 2.3% sodium dodecyl sulfate, 100 mM dithiothreitol, and 0.005% bromophenol blue), boiled, fractionated in a sodium dodecyl sulfate-polyacrylamide gel electrophoresis, and transferred onto a 0.45-μm nitrocellulose membrane (BioRad). […]

CC(C)C[C@H](NC(=O)[C@H](Cc1ccccc1)NC(=O)c1cnccn1)B(O)O [Bortezomib]
effect on EGF-stimulated promoter activity of sPLA2-IIA gene [1]: blocked | effect on sPLA2-IIA protein expression [2]: dramatically downregulated | effect on sPLA2-IIA secretion (ELISA of culture medium) [3]: significantly inhibited

EGF: epidermal growth factor
promoter activity of sPLA2-IIA gene ([1]; EGF ~100 ng/mL): significantly stimulated | sPLA2-IIA expression (western blot), stimulation by EGF ([2]; EGF ~100 ng/mL, FIGS. 2 and 3): stimulated sPLA2-IIA expression

C=CC(=O)Nc1cc2c(Nc3ccc(F)c(Cl)c3)ncnc2cc1OCCCN1CCOCC1 [CI-1033]
effect on EGF-stimulated promoter activity of sPLA2-IIA gene [1]: blocked | effect on sPLA2-IIA protein expression [2]: moderate impact | effect on sPLA2-IIA secretion (ELISA of culture medium) [3]: moderate effect

C#Cc1cccc(Nc2ncnc3cc(OCCOC)c(OCCOC)cc23)c1 [Erlotinib]
effect on EGF-stimulated promoter activity of sPLA2-IIA gene [1]: blocked | effect on sPLA2-IIA protein expression [2]: moderate impact | effect on sPLA2-IIA secretion (ELISA of culture medium) [3]: moderate effect

COc1cc2ncnc(Nc3ccc(F)c(Cl)c3)c2cc1OCCCN1CCOCC1 [Gefitinib]
effect on EGF-stimulated promoter activity of sPLA2-IIA gene [1]: blocked | effect on sPLA2-IIA protein expression [2]: moderate impact | effect on sPLA2-IIA secretion (ELISA of culture medium) [3]: moderate effect

CS(=O)(=O)CCNCc1ccc(-c2ccc3ncnc(Nc4ccc(OCc5cccc(F)c5)c(Cl)c4)c3c2)o1 [Lapatinib]
effect on EGF-stimulated promoter activity of sPLA2-IIA gene [1]: blocked | effect on sPLA2-IIA protein expression [2]: dramatically downregulated | effect on sPLA2-IIA expression in LAPC-4 and DU145 cells [4]: inhibited | effect on sPLA2-IIA secretion (ELISA of culture medium) [3]: significantly inhibited
